According to PMC3387161, “Small Molecules Targeted to a Non-Catalytic “RVxF” Binding Site of Protein Phosphatase-1 Inhibit HIV-1” (PLoS ONE, 2012):
Values joined by “and” are separate entries in the source; they are usually repeats but may differ in a detail not shown here. Equal values may be shown once. Square brackets hold non-standard residues; d marks the D form. Ends that are not written are not given here. pS = N[C@@H](COP(=O)(O)O)C(=O)O

How the values were obtained:
[1] = tested on: HIV-1 transcription in CEM-GFP cells; assay: cells; type: cell-based; details: for IC50: Human immunodeficiency virus 1, CEM-GFP, 24 h, read-out: Inhibition of HIV-1 Transcription in CEM-GFP cells (IC50, μM)
CEM cells = assay: Toxicity by propidium iodide fluorescence in CEM-GFP cells; type: cell-based; details: Homo sapiens, CCRF-CEM, 3 µM to 45 µM, 24 h
recombinant PP1α = target: T1, recombinant PP1α (Oryctolagus cuniculus, UniProt P62139); assay: Malachite green dephosphorylation of RVxF-containing hybrid pRb peptides by PP1α; type: biochemical; details: peptide as substrate, no compound added
T1 construct: purchased New England Biolabs, Ipswich, MA
Description: Here, we analyzed the effect of 1H4 on the binding of the Tat RVxF sequence to PP1 using hybrid PP1 substrates containing a substrate phosphopeptide linked to RVxF-containing sequences derived from Tat or NIPP1. As the substrate phosphopeptide, we used a retinoblastoma protein-derived HIPR(pS)[…] peptide (pRb) that is efficiently dephosphorylated by PP1 but not by the enzymatically-related PP2A [13]. The pRb peptide was linked to an extended RVxF-containing sequence derived from Tat ([…]) (pRb-Tat peptide) or the central domain of NIPP1 ([…]). To visualize the interaction between pRb-Tat and PP1 we built a computational model of the pRb-Tat peptide with PP1 complex (described in Materials and Methods). Based on this model, the pRb-Tat peptide is able to bind to the RVxF- accommodating groove of PP1 and, at the same time, to reach the active site of PP1 without any tension (Fig. 5A, green spheres; Fig. 5B, gray sticks). The pRb-Tat peptide was efficiently dephosphorylated by PP1 in vitro (Fig. 5C, V0 = 0.31 µM·min^-1). […] Addition of 1H4 at 3-fold molar excess (480 µM) over pRb-Tat (160 µM) inhibited pRb-Tat dephosphorylation and reduced the rate of dephosphorylation (Fig. 5C, V0 = 0.19 µM·min^−1) to the rate of pRb-Tat QACA dephosphorylation (Fig. 5C, V0 = 0.17 µM⋅min^−1). […] To further investigate the effect of 1H4 on the dephosphorylation of the pRb-Tat peptide, we analyzed the initial velocity versus pRb-Tat peptide substrate concentration plots. […] This was expected because the dephosphorylation site and the RVxF-containing sequence were fused into one hybrid substrate and 1H4 interferes with the binding of this substrate to PP1.
Figure 5 1H4 compound competes with RVxF motif. A. Superimposition of pRb-Tat peptide on the complex of PP1 with Spinophilin. PP1 surface is colored after the atom types. The spinophilin peptide is shown as magenta ribbon and the pRb-Tat peptide as orange ribbon. The Val25 and Phe27 residues of pRb-Tat and the Ile449 and Phe 451 residues of Spinophilin are shown as sticks. The 2-(N-morpholino)-ethanesulfonic acid bound in the active site of PP1 is shown in green spheres. The phosphorylated Ser6 residue of pRb-Tat peptide is shown as sticks. B. Phosphorylated Ser 6 residue binds to the active site of PP1. Comparative superimposition of pRb-Tat peptide over the crystal structure of MES bound in the active site of PP1. Catalytic resides are shown as sticks. MES is shown as green sticks, and the phosphorylated Ser6 residue of pRb-Tat peptide is shown as orange sticks. The pRb-Tat peptide is shown as orange ribbon. C. 1H4 inhibits kinetics of pRb-Tat peptide dephosphorylation by PP1α. Recombinant PP1α was assayed with pRb-Tat (WT or QACA mutant, 120 µM) in the absence or presence of 1H4 as indicated. The reactions were stopped at indicated time points and the phosphate release was quantified by malachite green assay. Initial velocity was calculated by linear regression in Prism. D. 1H4 inhibits kinetics of pRb-cdNIPP dephosphorylation by PP1α. Recombinant PP1α was assayed with pRb-cdNIPP1 in the absence or presence of 1H4 as indicated. Mutant pRb cdNIPP1 pA-RATA was used as negative control. The reactions were stopped at indicated time points and the phosphate release was quantified by malachite green assay. Initial velocity was calculated by linear regression in Prism. […] Initial rates of pRb-Tat peptide dephosphorylation by PP1α were assayed at the indicated concentrations of the substrate in the absence or presence of 300 µM 1H4 or non-HIV-1 inhibitory 1G3. The amount of the released phosphate was quantified with malachite green.
Malachite green dephosphorylation assays were carried out with the Ser/Thr phosphatase assay kit (Upstate, Lake Placid, NY) using recombinant PP1α (New England Biolabs, Ipswich, MA). […]

PP1α = PP1α (Homo sapiens, UniProt P62136)
PP1α, sequence (P62136 whole entry): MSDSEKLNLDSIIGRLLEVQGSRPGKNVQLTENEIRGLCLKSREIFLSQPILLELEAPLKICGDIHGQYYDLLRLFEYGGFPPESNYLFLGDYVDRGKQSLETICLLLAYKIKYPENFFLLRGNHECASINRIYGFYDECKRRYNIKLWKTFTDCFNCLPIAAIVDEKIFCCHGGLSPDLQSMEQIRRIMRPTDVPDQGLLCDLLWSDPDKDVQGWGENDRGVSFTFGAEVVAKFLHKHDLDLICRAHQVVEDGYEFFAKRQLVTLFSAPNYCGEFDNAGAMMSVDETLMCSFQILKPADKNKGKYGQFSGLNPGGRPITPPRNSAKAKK

T1 sequence (P62139 whole entry): as the sequence (P62136 whole entry) above

Molecule | IC50 [1] | IC50 (CEM cells) | Initial velocity V0 of peptide dephosphorylation by PP1α (recombinant PP1α) | other results
Nc1c2c(nc3ccccc13)CCCC2 [9-amino-1,2,3,4-tetrahydroacridine, reference compound] | – | – | – | Activity as HIV-1 transcription inhibitor (in words) ([1]; data not shown, assay not specified): not active
CCC(c1nnc(SCC(=O)Nc2ncc(-c3ccc(F)cc3)s2)n1Cc1ccccc1)N(C)C (stereo not shown) [T5251659] | 10 µM | 6 µM | – | –
CCN(CC)S(=O)(=O)c1ccc2c(c1)nc(CCC(=O)N(C)c1ccc(C(F)(F)F)cc1)n2C [T5326526] | 15 µM | 10 µM | – | –
CC(OC(=O)c1ccccc1SCC(=O)Nc1ccc2c(c1)OCO2)C(=O)NCCC1=CCCCC1 (stereo not shown) [T5369370] | 10 µM | 15 µM | – | –
O=S(=O)(Nc1ccc(S(=O)(=O)N2CCC(Cc3ccccc3)CC2)cn1)c1ccccc1 [T5481237] | 15 µM | 20 µM | – | –
O=C(CNC(=O)c1ccccc1SCC(=O)NC12CC3CC(CC(C3)C1)C2)Nc1ccc(Cl)cc1 [T5498680] | 5 µM | 5 µM | – | –
CN(C1CCCCC1)S(=O)(=O)c1ccc(NC(=O)COc2ccccc2-c2ccccc2)cc1 [T5551920] | 15 µM | 15 µM | – | –
HIPR(pS)PYKFPSSPLRKKCCFHCQACAITK (HIPR[pS]PYKFPSSPLRKKCCFHCQACAITK; cysteine pairing not given here) [pRb-Tat QACA] | – | – | 0.17 µM/min and 0.17 ± 0.02 µM/min | –
HIPR(pS)PYKFPSSPLRKKCCFHCQVCFITK [pRb-Tat] | – | – | 0.31 µM/min and 0.31 ± 0.03 µM/min | –
HIPR[pS]PYKFPSSPL [pRb, reference compound] | – | – | 0.014 µM/min | –
HIPR[pS]PYKFPSSPLRAAAAASRATASED [pRb-NIPP1 pA-RATA] | – | – | 0.004 µM/min | Initial velocity V0 of peptide dephosphorylation by PP1α (recombinant PP1α; listed as pRb-cdNIPP1 pA-RATA): 0.017 ± 0.004 µM/min
HIPR[pS]PYKFPSSPLRKRKRKNSRVTFSED [pRb-NIPP1] | – | – | 0.56 µM/min | Initial velocity V0 of peptide dephosphorylation by PP1α (recombinant PP1α; listed as pRb-cdNIPP1): 0.56 ± 0.03 µM/min
HIPR[pS]PYKFPSSPLRKRKRKNSRVTFSED [pRb-NIPP1 peptide] | – | – | – | initial velocity V0 of dephosphorylation of the peptide by recombinant PP1α in the presence of the small molecule 1H4 (PP1α): 0.37 µM⋅min^−1; initial velocity V0 of dephosphorylation of the peptide by recombinant PP1α in vitro (malachite green) (PP1α): 0.56 µM⋅min^−1
